Patent publication US10048243B2, “Automatic water quality surveillance apparatus” (priority 2016, dated 2018)

Columns and labels:
[1] = tested on: fish reared within the water tank for fish; assay type: in vivo; settings: for effect on the fish: in vivo; for damage or injury of the fish caused by the pollution: small amount
Source text: This is because the oil keeps floating on a water surface thereof.
In this context, the present inventor has confirmed according to tests that the conventional automatic water quality surveillance apparatus with fish cannot sense the oil and/or the mold odor substances based on abnormal behavior of the fish.

[2] = tested on: cyprinodonts; set-up: species or system Oryzias latipes; settings: in vivo
Source text: Referring to FIG. 10, it is clear that the cyprinodonts 4e take unique action based on the kind of toxic substances.
In order to solve the problems, the present inventor has further devised a method including: putting a plurality (for example, 20) of cyprinodonts 4e into the water tank for fish 4d; photographing the cyprinodonts 4e by means of the CCD video camera 1 in a direction of bird's-eye to output data; and analyzing the data with the image processing device 1b.
In order to solve the problem of photographing one cyprinodont from the side wall, the inventor has performed: changing the side photographing system shown in FIG. 10 to the bird's-eye photographing system shown in FIG. 11; using the more (about 20) cyprinodonts; and developing new algorithm. In this way, the present inventor has solved the problem in recent years.
Furthermore, the present inventor has developed algorithm of issuing an alarm in this state.
When about 2 [ppm] concentration of potassium cyanide is contained in the raw water, the cyprinodonts 4e swim weakly toward a water flow to be carried away, thereby being latched by the capture net 4f.

Row | SMILES | effect on the fish [1] | damage or injury of the fish caused by the pollution [1] | organ system of cyprinodonts damaged [2] | unique action taken by cyprinodonts [2]
1 | CC1(C)[C@@H]2CC[C@@]1(C)[C@](C)(O)C2 [2-MIB, 2-methylisoborneol] | hardly affect the fish | neither to be damaged nor to be injured | – | –
2 | CC1CCCC2(C)CCCCC12O (stereo not drawn) [geosmin] | hardly affect the fish | neither to be damaged nor to be injured | – | –
3 | COP(=S)(OC)Oc1ccc([N+](=O)[O-])c(C)c1 [Fenitrothion] | – | – | damages nervous systems | madly-rushing action
